From patent US9439904B2, “Pyrimidine compounds and their use as gamma secretase modulators” (Acturum Life Science AB, priority 2013, dated 2016) come the findings set out here.

Experiment [1] deals with Aβ42. Nature of the experiment: PCN assay: Aβ42 secreted by primary cortical neuronal cells, ELISA. The class given is cell-based. The conditions noted are these: primary cortical neuronal cells from 16-day mouse embryos; 16-20 hours incubation with test compound; read-out: pIC50 Aβ42 PCN assay (converted). On the procedure: Compounds were diluted in 100% DMSO and stored at […] prior to use. Primary cortical neuronal cells (PCN) were isolated from 16-day mouse embryos and cultured in Ham's F12 media containing 10% Foetal bovine serum, 10 mM Hepes, 2 mM L-glutamine and 100 U/mL Penicillin-Streptomycin. 150000-250000 cells/well, in 200 μL cell media were seeded onto 96-well poly-D-Lysine coated plates. After incubation at 37° C., 5% CO2 for five days, the media was exchanged for fresh medium containing test compound diluted ×100, before further incubation for 16-20 hours at 37° C. and 5% CO2. After incubation with test compound the amount of […] secreted to cell medium was analyzed using the solid phase sandwich Enzyme-Linked-Immuno-Sorbent Assay (ELISA)-kit from Invitrogen for detection of mouse βAmyloid 1-42. Potential cytotoxic effects of the compounds were assayed by measuring the ATP content (Via Light) from cell lysate.

Experiment [2] relates to Aβ42. Put plainly: HEK assay: Aβ42 secreted to cell medium, Meso Scale Discovery electrochemiluminescence. In kind it is cell-based. Particulars: Homo sapiens, HEK293; HEK cell line stably expressing APPswe; 4-6 hours incubation with test compound; read-out: pIC50 Aβ42 HEK assay (converted). On the procedure: Compounds were diluted in 100% DMSO and stored at […] prior to use. Human Embryonic Kidney (HEK) cell line stably expressing APP with the Swedish mutation (APPswe) was cultured using Dulbecco's Modified Eagles medium (DMEM) supplied with […] glucose, Na-pyruvate and GlutaMAX, 10% Foetal bovine serum, 100 U/mL penicillin-streptomycin (PEST), 1× non-essential amino acids (NEAA), […] Hepes, 100 μg/mL Zeocine. Cells at about 80% confluence were washed with PBS, detached from culture flasks using 1× Trypsin/EDTA diluted in PBS, re-suspended in cell media and plated in 384-well poly-d-lysine coated cell culture plates at about 10000-15000 cells/well, in 25 μL cell media. Optionally, cryo-preserved cells (frozen and stored at −140° C. in 90% cell media and 10% DMSO) were thawed, washed and plated as above. Next the cells were incubated for 15-24 h at 37° C. and 5% CO2, after which cell medium was changed. Fresh medium containing test compound diluted ×200 from prepared compound plate was added to the cells before further incubation for 4-6 hours at 37° C. and 5% CO2. After incubation with test compound the amount of Aβ peptides, including Aβ42, Aβ40, Aβ39, Aβ38 and Aβ37, secreted to cell medium was analyzed using the electrochemiluminescence assay technology from Meso Scale Discovery Technology, in combination with specific antibodies raised against the different Aβ peptides. Potential cytotoxic effects of the compounds were assayed by measuring the ATP content (ViaLight) from cell lysate.

With `CNc1cc(COCC2CC2)nc(Nc2ccc(-n3cnc(C)c3)c(OC)c2)n1` [Example 30, 6-((Cyclopropylmethoxy)methyl)-N2-(3-methoxy-4-(4-methyl-1H-imidazol-1-yl)phenyl)-N4-methylpyrimidine-2,4-diamine], the IC50 in the experiment with Aβ42 [1] was 63.1 nM; in the experiment on Aβ42 [2] it was 39.8 nM.
For `COc1cc(Nc2nc(COCC(F)(F)F)cc(NCC(C)(C)O)n2)ccc1-n1cnc(C)c1` [Example 36, 1-(2-(3-Methoxy-4-(4-methyl-1H-imidazol-1-yl)phenylamino)-6-((2,2,2-trifluoroethoxy)-methyl)pyrimidin-4-ylamino)-2-methylpropan-2-ol] the same measures were 39.8 nM and 63.1 nM.
As to `COc1cc(Nc2nc(COCC(F)(F)F)cc(N3CCC3)n2)ccc1-n1cnc(C)c1` [Example 20, 4-(Azetidin-1-yl)-N-(3-methoxy-4-(4-methyl-1H-imidazol-1-yl)phenyl)-6-((2,2,2-trifluoroethoxy)methyl)pyrimidin-2-amine], the IC50 in the experiment on Aβ42 [1] is 100 nM; with Aβ42 [2] it was 39.8 nM.
`COc1cc(Nc2nc(CC#N)cc(COCC(F)(F)F)n2)ccc1-n1cnc(C)c1` [Example 3, 2-[2-[3-Methoxy-4-(4-methylimidazol-1-yl)anilino]-6-(2,2,2-trifluoroethoxymethyl)pyrimidin-4-yl]acetonitrile]: the IC50 in the experiment with Aβ42 [1] was 39.8 nM; in the experiment with Aβ42 [2], 25.1 nM.
In the case of `COc1cc(Nc2nc(COCC(F)(F)F)cc(C(C)(O)C(C)C)n2)ccc1-c1cnc(C)o1` (stereo not shown) [Example 48, 2-(2-(3-Methoxy-4-(2-methyloxazol-5-yl)phenylamino)-6-((2,2,2-trifluoroethoxy)methyl)-pyrimidin-4-yl)-3-methylbutan-2-ol], the figures for the IC50 in the experiment with Aβ42 [1] and in the experiment on Aβ42 [2] were 50.1 nM and 25.1 nM, respectively.
For `CCOC1(c2cc(C(C)(C)O)nc(Nc3ccc(-n4cnc(C)c4)c(OC)c3)n2)CC1(F)F` (stereo not shown) [Example 52, 2-(6-(1-Ethoxy-2,2-difluorocyclopropyl)-2-(3-methoxy-4-(4-methyl-1H-imidazol-1-yl)phenylamino)pyrimidin-4-yl)propan-2-ol] the same measures were 200 nM and 200 nM.
For `COc1cc(Nc2nc(C(C)O)cc(C(C)OCC(F)(F)F)n2)ccc1-n1cnc(C)c1` (stereo not shown) [Example 7, 1-(2-(3-Methoxy-4-(4-methyl-1H-imidazol-1-yl)phenylamino)-6-(1-(2,2,2-trifluoroethoxy)-ethyl)pyrimidin-4-yl)ethanol] the same measures were 31.6 nM and 31.6 nM.
For `COc1cc(Nc2nc(COCC(F)(F)F)cc(C(O)c3ccccc3)n2)ccc1-n1cnc(C)c1` (stereo not shown) [Example 49, (2-(3-Methoxy-4-(4-methyl-1H-imidazol-1-yl)phenylamino)-6-((2,2,2-trifluoroethoxy)-methyl)pyrimidin-4-yl)(phenyl)methanol] the same measures were 79.4 nM and 79.4 nM.
Consider `COCCNc1cc(COCC(F)(F)F)nc(Nc2ccc(-n3cnc(C)c3)c(OC)c2)n1` [Example 37, N2-(3-Methoxy-4-(4-methyl-1H-imidazol-1-yl)phenyl)-N4-(2-methoxyethyl)-6-((2,2,2-trifluoroethoxy)methyl)pyrimidine-2,4-diamine], for which the figures for the IC50 in the experiment on Aβ42 [1] and in the experiment with Aβ42 [2] were 63.1 nM and 39.8 nM, respectively.
Turning to `COc1cc(Nc2nc(COCC(F)(F)F)cc(C(C)(C)O)n2)ccc1-c1cnc(C)o1` [Example 46, 2-(2-(3-Methoxy-4-(2-methyloxazol-5-yl)phenylamino)-6-((2,2,2-trifluoroethoxy)methyl)-pyrimidin-4-yl)propan-2-ol], the results for the IC50 in the experiment on Aβ42 [1] and with Aβ42 [2] were 79.4 nM and 39.8 nM, respectively.
`COc1cc(Nc2nc(COCC3CC3)cc(C(C)(C)O)n2)ccc1-n1cnc(C)c1` [Example 29, 2-(6-((Cyclopropylmethoxy)methyl)-2-(3-methoxy-4-(4-methyl-1H-imidazol-1-yl)phenylamino)pyrimidin-4-yl)propan-2-ol]: the IC50 in the experiment with Aβ42 [1] was 63.1 nM; in the experiment on Aβ42 [2], 39.8 nM.
For `COCc1cc(C(C)(C)O)nc(Nc2ccc(-n3cnc(C)c3)c(OC)c2)n1` [Example 27, 2-(2-(3-Methoxy-4-(4-methyl-1H-imidazol-1-yl)phenylamino)-6-(methoxymethyl)pyrimidin-4-yl)propan-2-ol] the same measures were 126 nM and 158 nM.
For `COc1cc(Nc2nc(COCC(F)(F)F)cc(OCC3CC3)n2)ccc1-n1cnc(C)c1` [Example 51, 4-(Cyclopropylmethoxy)-N-[3-methoxy-4-(4-methyl-1H-imidazol-1-yl)phenyl]-6-[(2,2,2-trifluoroethoxy)methyl]pyrimidin-2-amine] the same measures were 126 nM and 63.1 nM.
`COc1cc(Nc2nc(COCC(F)(F)F)cc(CN3CC(F)C3)n2)ccc1-c1cnnc(C)c1` [Example 42, 4-((3-Fluoroazetidin-1-yl)methyl)-N-(3-methoxy-4-(6-methylpyridazin-4-yl)phenyl)-6-((2,2,2-trifluoroethoxy)methyl)pyrimidin-2-amine]: the IC50 with Aβ42 [1] is 251 nM; with Aβ42 [2], 79.4 nM.
`COc1cc(Nc2nc(COCC(F)(F)F)cc(CN(C)C)n2)ccc1-n1cnc(C)c1` [Example 41, 4-((Dimethylamino)methyl)-N-(3-methoxy-4-(4-methyl-1H-imidazol-1-yl)phenyl)-6-((2,2,2-trifluoroethoxy)methyl)pyrimidin-2-amine]: in the experiment with Aβ42 [2], the IC50 was 158 nM.
For the compound `COc1cc(Nc2nc(COCC(F)(F)F)cc(NC3CC3)n2)ccc1-n1cnc(C)c1` [Example 34, N^4-Cyclopropyl-N^2-(3-methoxy-4-(4-methyl-1H-imidazol-1-yl)phenyl)-6-((2,2,2-trifluoroethoxy)methyl)pyrimidine-2,4-diamine], the IC50 with Aβ42 [1] was 100 nM; in the experiment on Aβ42 [2] it was 50.1 nM.
For `COc1cc(Nc2nc(COCC(F)(F)F)cc(NCC3CC3)n2)ccc1-n1cnc(C)c1` [Example 33, N^4-(Cyclopropylmethyl)-N^2-(3-methoxy-4-(4-methyl-1H-imidazol-1-yl)phenyl)-6-((2,2,2-trifluoroethoxy)methyl)pyrimidine-2,4-diamine] the same measures were 50.1 nM and 39.8 nM.
For `COc1cc(Nc2nc(COCC(F)(F)F)cc(C(C)N3CC(F)C3)n2)ccc1-n1cnc(C)c1` (stereo not shown) [Example 43, 4-(1-(3-Fluoroazetidin-1-yl)ethyl)-N-(3-methoxy-4-(4-methyl-1H-imidazol-1-yl)phenyl)-6-((2,2,2-trifluoroethoxy)methyl)pyrimidin-2-amine] the same measures were 158 nM and 31.6 nM.
As for `COc1cc(Nc2nc(COCC3CC3)cc(COCC(F)(F)F)n2)ccc1-n1cnc(C)c1` [Example 16, 4-((Cyclopropylmethoxy)methyl)-N-(3-methoxy-4-(4-methyl-1H-imidazol-1-yl)phenyl)-6-((2,2,2-trifluoroethoxy)methyl)pyrimidin-2-amine], the IC50 in the experiment with Aβ42 [1] was 79.4 nM; in the experiment on Aβ42 [2] it was 50.1 nM.
For `COc1cn(-c2ccc(Nc3nc(COCC(F)(F)F)cc(C(C)O)n3)cc2OC)cn1` (stereo not shown) [Example 31, 1-(2-(3-Methoxy-4-(4-methoxy-1H-imidazol-1-yl)phenylamino)-6-((2,2,2-trifluoroethoxy)-methyl)pyrimidin-4-yl)ethanol] the same measures were 316 nM and 251 nM.
For `COc1cc(Nc2nc(COCC(F)(F)F)cc(C(O)C(F)(F)F)n2)ccc1-n1cnc(C)c1` (stereo not shown) [Example 12, 2,2,2-Trifluoro-1-(2-(3-methoxy-4-(4-methyl-1H-imidazol-1-yl)phenylamino)-6-((2,2,2-trifluoroethoxy)methyl)pyrimidin-4-yl)ethanol] the same measures were 39.8 nM and 79.4 nM.
For `COc1cc(Nc2nc(COCC3CC(F)(F)C3)cc(C(C)(C)O)n2)ccc1-c1cnnc(C)c1` [Example 19, 2-(6-(((3,3-Difluorocyclobutyl)methoxy)methyl)-2-(3-methoxy-4-(6-methylpyridazin-4-yl)phenylamino)pyrimidin-4-yl)propan-2-ol], in the experiment with Aβ42 [2], the IC50 was 200 nM.
Regarding `COc1cc(Nc2nc(COCC(F)(F)F)cc(C(O)C(C)C)n2)ccc1-n1cnc(C)c1` (stereo not shown) [Example 14, 1-(2-(3-Methoxy-4-(4-methyl-1H-imidazol-1-yl)phenylamino)-6-((2,2,2-trifluoroethoxy)methyl)pyrimidin-4-yl)-2-methylpropan-1-ol], in the experiment with Aβ42 [1], the IC50 was 39.8 nM.
